Experimental data as given in patent US7759345B2, “Antitumoral derivatives of ET-743” (priority 2001, dated 2010).

Key:
Type in all cases: cell-based
A-549 = assay: Inhibition of cells growth by colorimetric assay (SRB), A-549; settings: SRB, 48 hours exposure; for GI50 / LC50 (concentration for 50% cell killing): Homo sapiens, A549, 48 h; for A-549 TGI / GI50: A-549; for GI50: read-out: A-549 GI50; for LC50 (concentration for 50% cell killing): read-out: A-549 LC50, A-549
Outline: (§1)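 Sulforhodamine B protein-stain readout (490 nm) after 48 h drug exposure, with GI, TGI and LC parameters calculated from triplicate means. Cells seeded at 5×10^3 per well, allowed 18 h drug-free attachment; dose range 10 to 10^−8 μg/ml, vehicle DMSO/EtOH/PBS (0.5:0.5:99).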

LoVo = assay: Inhibition of cells growth by colorimetric assay (SRB), LoVo; settings: SRB, 48 hours exposure; for GI50 / LC50 (concentration for 50% cell killing): Homo sapiens, LoVo, 48 h; for GI50 / LOVO TGI: LOVO; for GI50: read-out: LOVO GI50; for LC50 (concentration for 50% cell killing): read-out: LOVO LC50, LOVO
Method: (§2) 2°.—Inhibition of Cells Growth by Colorimetric Assay.
(§3) A colorimetric type of assay, using sulforhodamine B (SRB) reaction has been adapted for a quantitative measurement of cell growth and viability [following the technique described by Philip Skehan, et al. (1990), New colorimetric cytotoxicity assay for anticancer drug screening, J. Natl. Cancer Inst., 82:1107-1112]
(§4) This form of the assay employs 96 well cell culture microplates of 9 mm diameter (Faircloth, 1988; Mosmann, 1983). Most of the cell lines are obtained from American Type Culture Collection (ATCC) derived from different human cancer types.
(§5) Cells are maintained in RPMI 1640 10% FBS, supplemented with 0.1 g/l penicillin and 0.1 g/l streptomycin sulfate and then incubated at 37° C., 5% CO2 and 98% humidity. For the experiments, cells were harvested from subconfluent cultures using trypsin and resuspended in fresh medium before plating.
(§6) Cells are seeded in 96 well microtiter plates, at 5×10^3 cells per well in aliquots of 195 μl medium, and they are allowed to attach to the plate surface by growing in drug free medium for 18 hours. Afterward, samples are added in aliquots of 5 μl in a ranging from 10 to 10^−8 μg/ml, dissolved in DMSO/EtOH/PBS (0.5:0.5:99). After 48 hours exposure, the antitumor effect are measured by the SRB methodology: cells are fixed by adding 50 μl of cold 50% (wt/vol) trichloroacetic acid (TCA) and incubating for 60 minutes at 4° C. Plates are washed with deionized water and dried. One hundred μl of SRB solution (0.4% wt/vol in 1% acetic acid) is added to each microtiter well and incubated for 10 minutes at room temperature. Unbound SRB is removed by washing with 1% acetic acid. Plates are air dried and bound stain is solubilized with Tris buffer. Optical densities are read on a automated spectrophotometric plate reader at a single wavelength of 490 nm.
(§7) The values for mean+/−SD of data from triplicate wells are calculated. Some parameters for cellular responses can be calculated: GI=growth inhibition, TGI=total growth inhibition (cytostatic effect) and LC=cell killing (cytotoxic effect).
(§8) Obtained results may predict the usefulness of a certain drug as a potential cancer treatment. For this technique, compounds which show GI50 values smaller than 10 μg/ml are selected to continue with further studies. GI50's data allow to predict that not only could a drug be cystostatic, but also it could have a potential in terms of tumor reduction.

LNCaP = assay: Inhibition of cells growth by colorimetric assay (SRB), LNCaP; settings: SRB, 48 hours exposure; for GI50 / CC50: Homo sapiens, LNCaP, 48 h; for GI50: read-out: LNCAP GI50, LNCAP; for CC50: read-out: LNCAP LC50, LNCAP
Method: as §2, §3, §4, §5, §6, §7, §8

IGROV-ET = assay: Inhibition of cells growth by colorimetric assay (SRB), IGROV-ET; settings: SRB, 48 hours exposure; for GI50 / CC50: Homo sapiens, 48 h; for GI50 / IGROV-ET TGI: IGROV-ET; for GI50: read-out: IGROV-ET GI50; for CC50: read-out: IGROV-ET LC50, IGROV-ET
Method: as §2, §3, §4, §5, §6, §7, §8

HMEC1 = assay: Inhibition of cells growth by colorimetric assay (SRB), HMEC1; settings: SRB, 48 hours exposure; for GI50 / LC50: Homo sapiens, HMEC-1, 48 h; for HMEC-1 TGI / GI50: HMEC-1; for GI50: read-out: HMEC-1 GI50; for LC50: read-out: HMEC-1 LC50, HMEC-1
Method: as §2, §3, §4, §5, §6, §7, §8

K-562 = assay: Inhibition of cells growth by colorimetric assay (SRB), K-562; settings: SRB, 48 hours exposure; for GI50 / LC50 (50% cell killing): Homo sapiens, K562, 48 h; for GI50 / K-562 TGI: K-562; for GI50: read-out: K-562 GI50; for LC50 (50% cell killing): read-out: K-562 LC50, K-562
Method: as §2, §3, §4, §5, §6, §7, §8

SK-OV-3 = assay: Inhibition of cells growth by colorimetric assay (SRB), SK-OV-3; settings: SRB, 48 hours exposure; for GI50 / LC50: Homo sapiens, SK-OV-3, 48 h; for GI50 / SK-OV3 TGI: SK-OV3; for GI50: read-out: SK-OV3 GI50; for LC50: read-out: SK-OV3 LC50, SK-OV3
Method: as §2, §3, §4, §5, §6, §7, §8

HT-29 = assay: Inhibition of cells growth by colorimetric assay (SRB), HT-29; settings: SRB, 48 hours exposure; for GI50 / LC50 (concentration for 50% cell killing): Homo sapiens, HT-29, 48 h; for HT-29 TGI / GI50: HT-29; for GI50: read-out: HT-29 GI50; for LC50 (concentration for 50% cell killing): read-out: HT-29 LC50, HT-29
Outline: as §1

SK-BR-3 = assay: Inhibition of cells growth by colorimetric assay (SRB), SK-BR-3; settings: SRB, 48 hours exposure; for GI50 / CC50: Homo sapiens, SK-BR-3, 48 h; for GI50 / SK-BR3 TGI: SK-BR3; for GI50: read-out: SK-BR3 GI50; for CC50: read-out: SK-BR3 LC50, SK-BR3
Method: as §2, §3, §4, §5, §6, §7, §8

DU-145 = assay: Inhibition of cells growth by colorimetric assay (SRB), DU-145; settings: SRB, 48 hours exposure; for GI50 / CC50: Homo sapiens, DU-145, 48 h; for DU-145 TGI / GI50: DU-145; for GI50: read-out: DU-145 GI50; for CC50: read-out: DU-145 LC50, DU-145
Method: as §2, §3, §4, §5, §6, §7, §8

SK-MEL-28 = assay: Inhibition of cells growth by colorimetric assay (SRB), SK-MEL-28; settings: SRB, 48 hours exposure; for GI50 / CC50: Homo sapiens, SK-MEL-28, 48 h; for GI50 / MEL-28 TGI: MEL-28; for GI50: read-out: MEL-28 GI50; for CC50: read-out: MEL-28 LC50, MEL-28
Outline: as §1

LoVo-Dox = assay: Inhibition of cells growth by colorimetric assay (SRB), LoVo-Dox; settings: SRB, 48 hours exposure; for GI50 / CC50: Homo sapiens, 48 h; for GI50 / LOVO-DOX TGI: LOVO-DOX; for GI50: read-out: LOVO-DOX GI50; for CC50: read-out: LOVO-DOX LC50, LOVO-DOX
Method: as §2, §3, §4, §5, §6, §7, §8

PANC-1 = assay: Inhibition of cells growth by colorimetric assay (SRB), PANC-1; settings: SRB, 48 hours exposure; for GI50 / LC50 (concentration for 50% net cell kill): Homo sapiens, PANC-1, 48 h; for GI50 / PANC-1 TGI: PANC-1; for GI50: read-out: PANC-1 GI50; for LC50 (concentration for 50% net cell kill): read-out: PANC-1 LC50, PANC-1
Method: as §2, §3, §4, §5, §6, §7, §8

IGROV-1 = assay: Inhibition of cells growth by colorimetric assay (SRB), IGROV-1; settings: SRB, 48 hours exposure; for GI50 / CC50: Homo sapiens, IGROV-1, 48 h; for GI50 / IGROV TGI: IGROV; for GI50: read-out: IGROV GI50; for CC50: read-out: IGROV LC50, IGROV
Method: as §2, §3, §4, §5, §6, §7, §8

SMILES: C=COC(=O)N1CCc2cc(O)c(OC)cc2[C@@]12CS[C@@H]1c3c(OC(C)=O)c(C)c4c(c3[C@H](COC2=O)N2C1[C@H]1c3c(cc(C)c(OC)c3O)C[C@@H]([C@@H]2O)N1C)OCO4 (stereo partly drawn) [Compound 95]
- A-549 TGI (A-549): 5.55E-08
- GI50 (A-549): 26.8 nM
- LC50 (concentration for 50% cell killing) (A-549): 147 nM
- GI50 (LoVo): 26.2 nM
- LC50 (concentration for 50% cell killing) (LoVo): 111 nM
- LOVO TGI (LoVo): 5.40E-08
- GI50 (LNCaP): 17.7 nM
- CC50 (LNCaP): 66 nM
- LNCAP TGI (LNCaP): 3.41E-08
- GI50 (IGROV-ET): 50.5 nM
- CC50 (IGROV-ET): 12000 nM
- IGROV-ET TGI (IGROV-ET): 1.16E-07
- HMEC-1 TGI (HMEC1): 2.80E-08
- GI50 (HMEC1): 9.36 nM
- LC50 (HMEC1): 75.6 nM
- GI50 (K-562): 15.3 nM
- LC50 (50% cell killing) (K-562): 2220 nM
- K-562 TGI (K-562): 5.30E-08
- GI50 (SK-OV-3): 28.1 nM
- LC50 (SK-OV-3): 368 nM
- SK-OV3 TGI (SK-OV-3): 6.59E-08
- HT-29 TGI (HT-29): 1.27E-07
- GI50 (HT-29): 40.4 nM
- LC50 (concentration for 50% cell killing) (HT-29): 12000 nM
- GI50 (SK-BR-3): 29.8 nM
- CC50 (SK-BR-3): 522 nM
- SK-BR3 TGI (SK-BR-3): 7.62E-08
- DU-145 TGI (DU-145): 8.92E-08
- GI50 (DU-145): 37.6 nM
- CC50 (DU-145): 1010 nM
- GI50 (SK-MEL-28): 25.2 nM
- CC50 (SK-MEL-28): 83.2 nM
- MEL-28 TGI (SK-MEL-28): 4.58E-08
- GI50 (LoVo-Dox): 240 nM
- CC50 (LoVo-Dox): 12000 nM
- LOVO-DOX TGI (LoVo-Dox): 8.68E-07
- GI50 (PANC-1): 38.8 nM
- LC50 (concentration for 50% net cell kill) (PANC-1): 1090 nM
- PANC-1 TGI (PANC-1): 1.08E-07
- GI50 (IGROV-1): 28 nM
- CC50 (IGROV-1): 1090 nM
- IGROV TGI (IGROV-1): 6.67E-08

SMILES: C=COC(=O)Oc1cc2c(cc1OC)[C@@]1(CS[C@@H]3c4c(OC(C)=O)c(C)c5c(c4[C@H](COC1=O)N1C3[C@H]3c4c(cc(C)c(OC)c4O)C[C@@H]([C@@H]1O)N3C)OCO5)N(C(=O)OC=C)CC2 (stereo partly drawn) [Compound 100]
- A-549 TGI (A-549): 6.20E-08
- GI50 (A-549): 29.8 nM
- LC50 (concentration for 50% cell killing) (A-549): 112 nM
- GI50 (LoVo): 24.4 nM
- LC50 (concentration for 50% cell killing) (LoVo): 82.3 nM
- LOVO TGI (LoVo): 4.48E-08
- GI50 (LNCaP): 21.5 nM
- CC50 (LNCaP): 66.5 nM
- LNCAP TGI (LNCaP): 3.79E-08
- GI50 (IGROV-ET): 63.2 nM
- CC50 (IGROV-ET): 11100 nM
- IGROV-ET TGI (IGROV-ET): 7.41E-07
- HMEC-1 TGI (HMEC1): 5.14E-08
- GI50 (HMEC1): 27.5 nM
- LC50 (HMEC1): 96.1 nM
- GI50 (K-562): 36.4 nM
- LC50 (50% cell killing) (K-562): 106 nM
- K-562 TGI (K-562): 6.20E-08
- GI50 (SK-OV-3): 28.2 nM
- LC50 (SK-OV-3): 111 nM
- SK-OV3 TGI (SK-OV-3): 5.74E-08
- HT-29 TGI (HT-29): 8.07E-08
- GI50 (HT-29): 35 nM
- LC50 (concentration for 50% cell killing) (HT-29): 11100 nM
- GI50 (SK-BR-3): 40.5 nM
- CC50 (SK-BR-3): 1720 nM
- SK-BR3 TGI (SK-BR-3): 9.87E-08
- DU-145 TGI (DU-145): 1.03E-07
- GI50 (DU-145): 43.1 nM
- CC50 (DU-145): 8320 nM
- GI50 (SK-MEL-28): 26.5 nM
- CC50 (SK-MEL-28): 95.9 nM
- MEL-28 TGI (SK-MEL-28): 5.04E-08
- GI50 (LoVo-Dox): 392 nM
- CC50 (LoVo-Dox): 11100 nM
- LOVO-DOX TGI (LoVo-Dox): 2.73E-06
- GI50 (PANC-1): 41.4 nM
- LC50 (concentration for 50% net cell kill) (PANC-1): 8320 nM
- PANC-1 TGI (PANC-1): 1.14E-08
- GI50 (IGROV-1): 35.1 nM
- CC50 (IGROV-1): 915 nM
- IGROV TGI (IGROV-1): 6.54E-08
